Each block holds one compound with its values, some of them ahead of it.
How the values were obtained:
[1] = In situ closed ileum loop administration study: insulin co-administered with additives; details: in situ rat ileal loop; for Effect on the intestinal absorption of insulin (in words): insulin 50 IU/kg co-administered with additive at 32 mM, N=3-8
Description: (§1) Additional i.p. injections of sodium pentobarbital (12.5 mg/kg) were administered every 1 h to maintain anesthesia. The ileum was exposed following a small midline incision made carefully in the abdomen. Its proximal to ileocecal junction segments (length = 10 cm) were cannulated at both ends using polypropylene tubing and ligated securely to prevent fluid loss. To wash out the intestinal contents, PBS warmed to 37 °C was circulated through the cannula at 5.0 mL/min for 4 min using an infusion pump. The cannulation tubing was removed, the segments were closed tightly and returned carefully to their original location inside the peritoneal cavity. Rats were kept on the board at 37 °C for an additional 30 min to calm biological reactions such as elevated blood glucose levels resulting from the stress imposed by surgery. […] To examine dose dependency, the final concentrations of tryptophan were adjusted to 4, 8, 16 and 32 mM. In the comparison study with three hydrophobic amino acids or metabolite of L-tryptophan, the final concentrations of L-isoleucine, L-proline, L-phenylalanine and serotonin were 32 mM. In the study examining the synergistic effect of L-arginine and L-tryptophan, the final concentration of L-arginine was fixed at 40 mM.
During the experiment, 0.25 mL blood aliquots were taken from the jugular vein at 0, 5, 10, 15, 30, 60, 120 and 180 min after dosing. The tuberculin syringes (1 mL, Terumo Corp., Tokyo, Japan) were heparinized by the standard procedure of coating the syringe wall with aspirated heparin and then expelling all the heparin. […] The plasma concentrations of FDs were measured with a microplate fluorimeter (Synergy HT, BioTek Instruments Inc., Winooski, VT, USA) at excitation and emission wavelengths of 485 and 528 nm, respectively.

[2] = system: Caco-2 cell monolayers; assay: TEER measurement of Caco-2 monolayer; assay type: cell-based, human; details: 37 °C, N=3
Description: In preparation for the assays, the cell membranes were allowed to equilibrate for 30 min in transport buffer; HBSS (pH 7.4) with 0.001% MC was added to the apical (0.5 mL) and basal (1.5 mL) chambers of the transwell.
The TEER of the Caco-2 monolayer was measured to confirm cell growth and differentiation on the insert filter of the transwell using a Millicell ERS-2 (Millipore Corp., Bedford, MA, USA). Before seeding the Caco-2 cells, the electrical resistance of the insert filter in the medium was measured and subtracted from the total electrical resistance determined for the monolayer to calculate the intrinsic TEER of the monolayer. The TEER of the monolayer was measured at the end of the 2 h incubation to detect any negative effects of the applied L-tryptophan on the intercellular tight junctions. The TEER is expressed as a percentage calculated by dividing the TEER value (Ω cm^2) at 2 h by the initial value.

[3] = system: Caco-2 cells; assay: Cell viability assay (WST-8, CCK-8); assay type: cell-based, human; details: completed DMEM, 600–2400 μM, 2 h then 3 h with CCK-8, N=6-11
Description: To examine the cellular viability of Caco-2 cells exposed to L-tryptophan, a WST-8 assay was performed with Cell Counting Kit-8 (CCK-8, Dojindo Laboratories, Kumamoto, Japan). The Caco-2 cells were grown in 96-well plates with a 0.33 cm^2 culture area (Nippon Becton Dickinson) to a density of 3.0 × 10^4 cells/cm^2 and then grown in 100 μL of completed DMEM for 3 or 4 days. In this assay, the completed DMEM was used in place of the incubation buffer to prevent the possible loss of cell viability during total 5 h incubation in HBSS. First, 10 μL of L-tryptophan stock solution (eleven times concentration) or transport buffer was added to 100 μL of completed DMEM and the cells were incubated with various concentrations of L-tryptophan (600–2400 μM) for 2 h. Then, 10 μL of CCK-8 reagent was added to the wells and the cells were incubated for an additional 3 h to allow for the reductive reaction of WST-8. The resulting absorbances of the incubated solution in the wells were read with a microplate reader (Synergy HT, BioTek Instruments Inc.) at a wavelength of 450 nm. In this assay, 0.8% of Triton X-100 was used as a positive control, same as the LDH assay.

[4] = molecular target: T1, insulin (Homo sapiens, UniProt P01308); assay: SPR-based binding assay on immobilized insulin
T1 construct: purchased Wako Pure Chemical Industries, Ltd. (Osaka, Japan)
T1 sequence (P01308 25-54 limits assumed): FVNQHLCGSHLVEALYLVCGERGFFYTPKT
T1 sequence (P01308 90-110 limits assumed): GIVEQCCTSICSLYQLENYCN
Description: Reference surfaces were prepared by amine coupling activation followed by immediate deactivation. […] At the end of each cycle, the surface was regenerated by a 30 s injection of 1 M NaCl. […] Each sensorgram was determined by subtracting nonspecific binding on the surface of the reference flow cell from total binding on the immobilized-insulin surface.

[5] = system: rat ileal segments; assay: In situ LDH leakage from rat ileal segments; assay type: in vivo; details: rat ileal loop; insulin 50 IU/kg with L-tryptophan 16 and 32 mM; fluid collected 60 min after administration; N=3; positive control 5% sodium taurodeoxycholate
Description: (§2) To assess the cytotoxic effects of L-tryptophan, the integrity of the cell membrane after treatment with the CPPs was examined by measuring the lactate dehydrogenase (LDH) released from the cytoplasm under both in vitro and in situ conditions.
For the trial with the highest concentration of L-tryptophan (50 mM), L-arginine (40 mM) was added as a solubilizing agent. For this test, 5% sodium taurodeoxycholate was used as a positive control. At 60 min after administration, the ileal loop was washed with 5.0 mL of PBS and then intestinal fluid was collected. After adjusting the collected intestinal fluid to a total volume of 6.0 mL with PBS, the activity of LDH (Unit) leaked into the intestinal fluid was determined using an LDH kit (Promega Corp.).

[6] = In vivo oral administration study, blood glucose levels; details: mice fasted 24 h; oral gavage insulin 50 IU/kg with L-tryptophan 32 mM (100 μL); blood glucose 0-360 min; N=6-8
Description: Blood glucose levels were measured (One Touch Ultra View, Johnson & Johnson K.K., Tokyo, Japan) by collection of blood (one drop) from a small cut in the tail vein at t = 0 (prior to dosing), 15, 30, 60, 120, 180, 240, 300 and 360 min after administration. Blood glucose levels are depicted as percentage of the initial value in same mouse. Mice were trained with oral dosing and tail cutting at 24 h and 60 min prior to actual drug administration to avoid the unexpected elevation of blood glucose levels during experiments.

[7] = system: Caco-2 cells; assay: In vitro LDH leakage; assay type: cell-based, human; details: HBSS pH 7.4 with 0.001% MC, 300–2400 μM, 120 min, 37 °C, relative to 0.8% Triton X-100, N=3
Description: as §2
In the in vitro assay, the Caco-2 cells were grown in 24-well plates with a 1.88 cm^2 culture area (Nippon Becton Dickinson) at the density of 1.0 × 10^5 cells/cm^2 and then grown in completed DMEM for 3 or 4 days. Before the addition of L-tryptophan, cell membranes were allowed to equilibrate in 0.5 mL of assay buffer for 30 min. HBSS containing 0.001% MC (pH 7.4) was added to the wells as the transport buffer. After a 30 min pre-incubation with transport buffer, the assay was initiated by replacing 50 μL of transport buffer with 50 μL of L-tryptophan stock solution (ten times concentration) or transport buffer. […] The incubation buffer was collected and LDH released from the cytoplasm into the incubation buffer was determined using a CytoTox 96 Non-Radioactive Cytotoxicity Assay kit (Promega Corp., Madison, WI, USA). Cytotoxicity was expressed as the percentage calculated by dividing the absorbance of the vehicle (HBSS) or the L-tryptophan-treated sample by that of a sample treated with 0.8% Triton X-100, according to the instructions of assay kit.

[8] = In situ closed ileum loop absorption of dextrans and peptide drugs with or without L-tryptophan
Description: as §1, with “In the comparison study with three hydrophobic amino acids or metabolite of L-tryptophan, the final concentrations of L-isoleucine, L-proline, L-phenylalanine and serotonin were 32 mM. In the study examining the synergistic effect of L-arginine and L-tryptophan, the final concentration of L-arginine was fixed at 40 mM.” left out
During the experiment, 0.25 mL blood aliquots were taken from the jugular vein at 0, 5, 10, 15, 30, 60, 120 and 180 min after dosing. […] The plasma concentrations of FDs were measured with a microplate fluorimeter (Synergy HT, BioTek Instruments Inc., Winooski, VT, USA) at excitation and emission wavelengths of 485 and 528 nm, respectively.

[9] = system: Caco-2 cell monolayers; details: 9.6 mM (equivalent to 4.2 mg/kg in the animal study) added to transwell; cited from earlier work
[10] = insulin co-administered with additive at 40 mM; cited from earlier work
[11] = system: Caco-2 cell monolayers; assay: Transcellular transport assay: insulin permeation through Caco-2 monolayer; details: Caco-2 transwell, apical to basal, insulin 15 μM co-incubated with additive 2.4 or 16 mM, HBSS pH 7.4, 2 h, 37 °C; N=3
Description: For TEER measurement, Caco-2 cells were grown in 12-well transwell plates with a 1.13 cm^2 culture area (collagen-coated polytetrafluoroethylene (PTFE) membrane with 0.4 μm pore size, Corning Inc., Corning, NY, USA). The cells were cultured to a density of 1.0 × 10^5 cells/cm^2. […] The culture medium was changed every second day and the electrical resistance was monitored by the method described below. Each well consisted of apical (top) and basal (bottom) chambers, which were separated by a collagen-coated polytetrafluoroethylene membrane with a pore size of 0.4 μm and a filter area of 1.12 cm^2.
In preparation for the assays, the cell membranes were allowed to equilibrate for 30 min in transport buffer; HBSS (pH 7.4) with 0.001% MC was added to the apical (0.5 mL) and basal (1.5 mL) chambers of the transwell. […] During the incubation, the Caco-2 monolayer was kept at physiological temperature (37 °C).

Compound: RQIKIWFQNRRMKWKK [L-penetratin]
Onset of action / of insulin absorption after co-administration ([1]; insulin 50 IU/kg co-administered with L-tryptophan 8-32 mM, L-penetratin 0.5 mM or D-tryptophan 16 and 32 mM, time after administration): 15 min

Change in TEER of Caco-2 cell monolayers ([2]; typical enhancer as positive control, concentration not given, 2 h): significant reduction in TEER
Compound: CCCCCCCCCC(=O)[O-].[Na+] [C10, sodium caprate]

Compound: N[C@@H](Cc1ccccc1)C(=O)O [L-phenylalanine]
Effect on the intestinal absorption of insulin (in words) [1]: no stimulatory effect on insulin absorption

Compound: N[C@@H](Cc1c[nH]c2ccccc12)C(=O)O [L-Tryptophan, L-tryptophan]
Cell viability (WST-8) [3]: no decrease in cell viability | Binding to immobilized insulin (SPR sensorgram) ([4]; CM5 chip, analyte 2–200 μM, HBSS pH 7.4 with 0.001% MC, 25 °C, 90 s injection): do not show an increase | Change in TEER of Caco-2 cell monolayers ([2]; apical, insulin 15 μM with additive 600–16,000 μM, HBSS pH 7.4, 2 h, TEER at 120 min vs initial): No change in the TEER values | Leakage of LDH into intestinal fluid (in situ) [5]: negligible | Hypoglycemic reaction / oral absorption of insulin (blood glucose levels) [6]: could enhance the oral absorption of insulin | Release of LDH into the media (in vitro) [7]: no release of LDH

AUC, −L-Tryptophan ([8]; rat, in vivo, 1.25 mg/kg): 1.35 ± 0.27 ng·h/mL
Compound: GLP-1

Compound: O=C(O)[C@@H]1CCCN1 [L-proline]
Effect on the intestinal absorption of insulin (in words) [1]: no stimulatory effect on insulin absorption

Compound: N=C(N)NCCC[C@H](N)C(=O)O [L-arginine]
Opening of tight junctions in Caco-2 cell monolayers [9]: no opening of tight junctions was observed | Binding with insulin ([4]; data not shown): showed no binding with insulin | Effect on the intestinal absorption of peptide drugs (GLP-1, Exendin-4) ([8]; data not shown): had no effect on the intestinal absorption of such peptide drugs | Tmax of insulin absorption after co-administration [10]: 12.8 ± 0.9 min

Compound: CC[C@H](C)[C@H](N)C(=O)O [L-isoleucine]
Effect on the intestinal absorption of insulin (in words) [1]: no stimulatory effect on insulin absorption

Change in TEER of Caco-2 cell monolayers ([2]; apical, insulin 15 μM with additive 2.4 or 16 mM, HBSS pH 7.4, 2 h): increased the TEER
Compound: NCCc1c[nH]c2ccc(O)cc12 [Serotonin, serotonin]
Effect on the intestinal absorption of insulin (in words) [1]: could enhance the intestinal absorption of insulin | Permeation of insulin through Caco-2 monolayer [11]: no stimulatory effect on the permeation of insulin

Source: publication PMC6321321 (Pharmaceutics, 2018)
